In patent US20070049564A1 (Wyeth, priority 2005, published 2007):
In brackets after ≈: the same amount, converted by molar mass. Read-outs that look alike come from different tables or passages of the source.

What was measured:
S. aureus GC 6466 = assay: MIC, broth microdilution; conditions: Staphylococcus aureus, GC6466, S. aureus GC 6466
E. coli GC 2272 = assay: MIC, broth microdilution; conditions: Escherichia coli, GC2272, E. coli GC 2272
E. coli GC 3226 = assay: MIC, broth microdilution; conditions: Escherichia coli, GC3226, E. coli GC 3226
E. coli GC 2232 = assay: MIC, broth microdilution; conditions: Escherichia coli, GC2232, E. coli GC 2232
Method: Antimicrobial susceptibility testing. The in vitro activities of the antibiotics are determined by the broth microdilution method as recommended by the National Committee for Clinical Laboratory Standards (NCCLS) (1). Mueller-Hinton II broth (MHBII)(BBL Cockeysville, Md.) is the medium employed in the testing procedures. Microtiter plates containing serial dilutions of each antimicrobial agent are inoculated with each organism to yield the appropriate density (10^5 CFU/ml) in a 100 μl final volume. The plates are incubated for 18-22 hours at 35° C. in ambient air.
Representative compounds were first incubated in mouse serum for an hour prior to the in vitro testing against a panel of selected gram-positive and gram-negative bacteria strains. All compounds were also pre-incubated in water for an hour prior to testing as control. Representative compounds of Formula I were incubated in human serum prior to MIC determination.

c. albicans GC 3066 = assay: MIC, broth microdilution
S. aureus GC 2216 = assay: MIC, broth microdilution; conditions: Staphylococcus aureus, GC2216, S. aureus GC 2216
E. coli GC 2231 = assay: MIC, broth microdilution; conditions: Escherichia coli, GC2231, E. coli GC 2231
S. aureus GC 1079 = assay: MIC, broth microdilution; conditions: Staphylococcus aureus, GC1079, S. aureus GC 1079
S. typhimurium GC 2172 = assay: MIC, broth microdilution; conditions: Salmonella enterica, TYPHIMURIUM, S. typhimurium GC 2172
S. pneumoniae* GC 4465 = assay: MIC, broth microdilution; conditions: Streptococcus pneumoniae, S. pneumoniae* GC 4465
E. faecium GC 2243 = assay: MIC, broth microdilution; conditions: Enterococcus faecium, GC2243, E. faecium GC 2243
S. pyogenes GC 4563 = assay: MIC, broth microdilution; conditions: Streptococcus pyogenes, GC4563, S. pyogenes GC 4563
Staph. aureus Smith = assay: In vivo activity (oral, iv; ED50) against Staph. aureus Smith in mice
Method: Representative examples of compounds of Formula I were tested for the oral efficacy using S. aureus Smith in mice.

S. aureus GC 1131 = assay: MIC, broth microdilution; conditions: Staphylococcus aureus, GC1131, S. aureus GC 1131
E. faecium GC 4556 = assay: MIC, broth microdilution; conditions: Enterococcus faecium, GC4556, E. faecium GC 4556
S. aureus GC 6335 = assay: MIC, broth microdilution; conditions: Staphylococcus aureus, GC6335, S. aureus GC 6335
E. faecalis GC 2267 = assay: MIC, broth microdilution; conditions: Enterococcus faecalis, GC2267, E. faecalis GC 2267
E. coli GC 2234 = assay: MIC, broth microdilution; conditions: Escherichia coli, GC2234, E. coli GC 2234
S. epidermidis GC 4935 = assay: MIC, broth microdilution; conditions: Staphylococcus epidermidis, GC4935, S. epidermidis GC 4935
S. pneumoniae+ GC 4465 = assay: MIC, broth microdilution; conditions: Streptococcus pneumoniae, S. pneumoniae+ GC 4465
[1] = c. albicans GC 3066, Water pre-incubation
[2] = Staphylococcus aureus, in Mus musculus, po, read-out: ED50 Staph Smith SOD
[3] = iv, read-out: ED50 Staph Smith SIV

Question: For `CCCCN(CC(=O)Nc1cc(N(C)C)c2c(c1O)C(=O)C1=C(O)[C@]3(O)C(=O)C(C(N)=O)=C(O)[C@@H](N(C)C)C3CC1C2)C(=O)OCOC(=O)c1ccc(C)cc1` (stereo partly drawn) [Example 3, ({[(2-{[(7S,10aS)-9-(aminocarbonyl)-4,7-bis(dimethylamino)-1,8,10a,11-tetrahydroxy-10,12-dioxo-5,5a,6,6a,7,10,10a,12-octahydrotetracen-2-yl]amino}-2-oxoethyl)(butyl)amino]carbonyl}oxy)methyl 4-methylbenzoate], which MIC (S. aureus GC 6466; Mouse Serum pre-incubation) is on record?
Answer: The MIC was 1 mg/L (≈ 1.29 µM).

Question: And the MIC (S. aureus GC 6466; Water pre-incubation)?
Answer: Its MIC is 4 mg/L (≈ 5.14 µM).

Question: And the MIC (E. coli GC 2272; Mouse Serum pre-incubation)?
Answer: Its MIC is 1 mg/L (≈ 1.29 µM).

Question: What about the MIC (E. coli GC 2272; Water pre-incubation) of the same compound?
Answer: The MIC was > 64 mg/L.

Question: And the MIC (E. coli GC 3226; Mouse Serum pre-incubation)?
Answer: The MIC was 2 mg/L (≈ 2.57 µM).

Question: What about the MIC (E. coli GC 3226; Water pre-incubation) of the same compound?
Answer: The MIC was > 64 mg/L.

Question: And the MIC (E. coli GC 2232; Mouse Serum pre-incubation)?
Answer: The MIC was 2 mg/L (≈ 2.57 µM).

Question: What about the MIC (E. coli GC 2232; Water pre-incubation) of the same compound?
Answer: The MIC was > 64 mg/L.

Question: And the MIC (c. albicans GC 3066; Candida albicans, GC3066)?
Answer: The MIC was > 64 mg/L.

Question: What about the MIC (c. albicans GC 3066; [1]) of the same compound?
Answer: Its MIC is >64 UG/ML.

Question: And the MIC (S. aureus GC 2216; Mouse Serum pre-incubation)?
Answer: The MIC was 1 mg/L (≈ 1.29 µM).

Question: And the MIC (S. aureus GC 2216; Water pre-incubation)?
Answer: The MIC was 4 mg/L (≈ 5.14 µM).

Question: And the MIC (E. coli GC 2231; Mouse Serum pre-incubation)?
Answer: The MIC was 2 mg/L (≈ 2.57 µM).

Question: What about the MIC (E. coli GC 2231; Water pre-incubation) of the same compound?
Answer: The MIC was > 64 mg/L.

Question: And the MIC (S. aureus GC 1079; Mouse Serum pre-incubation)?
Answer: Its MIC is 2 mg/L (≈ 2.57 µM).

Question: And the MIC (S. aureus GC 1079; Water pre-incubation)?
Answer: Its MIC is 32 mg/L (≈ 41.1 µM).

Question: What about the MIC (S. typhimurium GC 2172; Mouse Serum pre-incubation) of the same compound?
Answer: The MIC was 8 mg/L (≈ 10.3 µM).

Question: And the MIC (S. typhimurium GC 2172; Water pre-incubation)?
Answer: Its MIC is > 64 mg/L.

Question: What about the MIC (S. pneumoniae* GC 4465; Mouse Serum pre-incubation) of the same compound?
Answer: The MIC was 0.12 mg/L (≈ 0.154 µM).

Question: And the MIC (S. pneumoniae* GC 4465; Water pre-incubation)?
Answer: The MIC was 0.25 mg/L (≈ 0.321 µM).

Question: What about the MIC (E. faecium GC 2243; Mouse Serum pre-incubation) of the same compound?
Answer: The MIC was 1 mg/L (≈ 1.29 µM).

Question: What about the MIC (E. faecium GC 2243; Water pre-incubation) of the same compound?
Answer: The MIC was 4 mg/L (≈ 5.14 µM).

Question: And the MIC (S. pyogenes GC 4563; Mouse Serum pre-incubation)?
Answer: The MIC was 0.12 mg/L (≈ 0.154 µM).

Question: What about the MIC (S. pyogenes GC 4563; Water pre-incubation) of the same compound?
Answer: Its MIC is 0.25 mg/L (≈ 0.321 µM).

Question: And the ED50 (Staph. aureus Smith; [2])?
Answer: Its ED50 is 16.1 mg/kg.

Question: And the ED50 (Staph. aureus Smith; [3])?
Answer: Its ED50 is 0.59 mg/kg.

Question: And the MIC (S. aureus GC 1131; Mouse Serum pre-incubation)?
Answer: The MIC was 2 mg/L (≈ 2.57 µM).

Question: What about the MIC (S. aureus GC 1131; Water pre-incubation) of the same compound?
Answer: Its MIC is 4 mg/L (≈ 5.14 µM).

Question: And the MIC (E. faecium GC 4556; Mouse Serum pre-incubation)?
Answer: Its MIC is 2 mg/L (≈ 2.57 µM).

Question: What about the MIC (E. faecium GC 4556; Water pre-incubation) of the same compound?
Answer: Its MIC is 16 mg/L (≈ 20.6 µM).

Question: What about the MIC (S. aureus GC 6335; Mouse Serum pre-incubation) of the same compound?
Answer: The MIC was 2 mg/L (≈ 2.57 µM).

Question: What about the MIC (S. aureus GC 6335; Water pre-incubation) of the same compound?
Answer: Its MIC is 8 mg/L (≈ 10.3 µM).

Question: What about the MIC (E. faecalis GC 2267; Mouse Serum pre-incubation) of the same compound?
Answer: Its MIC is 2 mg/L (≈ 2.57 µM).

Question: What about the MIC (E. faecalis GC 2267; Water pre-incubation) of the same compound?
Answer: Its MIC is 32 mg/L (≈ 41.1 µM).

Question: And the MIC (E. coli GC 2234; Mouse Serum pre-incubation)?
Answer: The MIC was 1 mg/L (≈ 1.29 µM).

Question: And the MIC (E. coli GC 2234; Water pre-incubation)?
Answer: Its MIC is > 64 mg/L.

Question: And the MIC (S. epidermidis GC 4935; Mouse Serum pre-incubation)?
Answer: Its MIC is 4 mg/L (≈ 5.14 µM).

Question: And the MIC (S. epidermidis GC 4935; Water pre-incubation)?
Answer: The MIC was 8 mg/L (≈ 10.3 µM).

Question: And the MIC (S. pneumoniae+ GC 4465; Mouse Serum pre-incubation)?
Answer: The MIC was 1 mg/L (≈ 1.29 µM).

Question: And the MIC (S. pneumoniae+ GC 4465; Water pre-incubation)?
Answer: Its MIC is 2 mg/L (≈ 2.57 µM).

Question: Which results are given for `CCCCN(CC(=O)Nc1cc(N(C)C)c2c(c1O)C(=O)C1=C(O)[C@]3(O)C(=O)C(C(N)=O)=C(O)[C@@H](N(C)C)[C@@H]3C[C@@H]1C2)C(=O)OCOC(=O)c1ccc(F)cc1` [Example 4, ({[(2-{[(5aR,6aS,7S,10aS)-9-(aminocarbonyl)-4,7-bis(dimethylamino)-1,8,10a,11-tetrahydroxy-10,12-dioxo-5,5a,6,6a,7,10,10a,12-octahydrotetracen-2-yl]amino}-2-oxoethyl)(butyl)amino]carbonyl}oxy)methyl 4-fluorobenzoate]?
Answer: MIC (S. aureus GC 6466; Mouse Serum pre-incubation): 0.5 mg/L (≈ 0.64 µM); MIC (S. aureus GC 6466; Water pre-incubation): 2 mg/L (≈ 2.56 µM); MIC (E. coli GC 2272; Mouse Serum pre-incubation): 1 mg/L (≈ 1.28 µM); MIC (E. coli GC 2272; Water pre-incubation): 64 mg/L (≈ 81.9 µM); MIC (E. coli GC 3226; Mouse Serum pre-incubation): 2 mg/L (≈ 2.56 µM); MIC (E. coli GC 3226; Water pre-incubation): 64 mg/L (≈ 81.9 µM); MIC (E. coli GC 2232; Mouse Serum pre-incubation): 1 mg/L (≈ 1.28 µM); MIC (E. coli GC 2232; Water pre-incubation): 64 mg/L (≈ 81.9 µM); MIC (c. albicans GC 3066; Candida albicans, GC3066): > 64 mg/L; MIC (c. albicans GC 3066; [1]): >64 UG/ML; MIC (S. aureus GC 2216; Mouse Serum pre-incubation): 0.5 mg/L (≈ 0.64 µM); MIC (S. aureus GC 2216; Water pre-incubation): 4 mg/L (≈ 5.12 µM); MIC (E. coli GC 2231; Mouse Serum pre-incubation): 1 mg/L (≈ 1.28 µM); MIC (E. coli GC 2231; Water pre-incubation): 64 mg/L (≈ 81.9 µM); MIC (S. aureus GC 1079; Mouse Serum pre-incubation): 1 mg/L (≈ 1.28 µM); MIC (S. aureus GC 1079; Water pre-incubation): 4 mg/L (≈ 5.12 µM); MIC (S. typhimurium GC 2172; Mouse Serum pre-incubation): 4 mg/L (≈ 5.12 µM); MIC (S. typhimurium GC 2172; Water pre-incubation): > 64 mg/L; MIC (S. pneumoniae* GC 4465; Mouse Serum pre-incubation): < 0.06 mg/L; MIC (S. pneumoniae* GC 4465; Water pre-incubation): 0.12 mg/L (≈ 0.153 µM); MIC (E. faecium GC 2243; Mouse Serum pre-incubation): 0.5 mg/L (≈ 0.64 µM); MIC (E. faecium GC 2243; Water pre-incubation): 2 mg/L (≈ 2.56 µM); MIC (S. pyogenes GC 4563; Mouse Serum pre-incubation): 0.12 mg/L (≈ 0.153 µM); MIC (S. pyogenes GC 4563; Water pre-incubation): 0.25 mg/L (≈ 0.32 µM); ED50 (Staph. aureus Smith; [2]): 11.6 mg/kg; ED50 (Staph. aureus Smith; [3]): 0.39 mg/kg; MIC (S. aureus GC 1131; Mouse Serum pre-incubation): 1 mg/L (≈ 1.28 µM); MIC (S. aureus GC 1131; Water pre-incubation): 4 mg/L (≈ 5.12 µM); MIC (E. faecium GC 4556; Mouse Serum pre-incubation): 1 mg/L (≈ 1.28 µM); MIC (E. faecium GC 4556; Water pre-incubation): 4 mg/L (≈ 5.12 µM); MIC (S. aureus GC 6335; Mouse Serum pre-incubation): 1 mg/L (≈ 1.28 µM); MIC (S. aureus GC 6335; Water pre-incubation): 4 mg/L (≈ 5.12 µM); MIC (E. faecalis GC 2267; Mouse Serum pre-incubation): 1 mg/L (≈ 1.28 µM); MIC (E. faecalis GC 2267; Water pre-incubation): 8 mg/L (≈ 10.2 µM); MIC (E. coli GC 2234; Mouse Serum pre-incubation): 1 mg/L (≈ 1.28 µM); MIC (E. coli GC 2234; Water pre-incubation): 64 mg/L (≈ 81.9 µM); MIC (S. epidermidis GC 4935; Mouse Serum pre-incubation): 2 mg/L (≈ 2.56 µM); MIC (S. epidermidis GC 4935; Water pre-incubation): 4 mg/L (≈ 5.12 µM); MIC (S. pneumoniae+ GC 4465; Mouse Serum pre-incubation): 2 mg/L (≈ 2.56 µM); MIC (S. pneumoniae+ GC 4465; Water pre-incubation): 4 mg/L (≈ 5.12 µM)
